According to ChEMBL document CHEMBL5661975, “Discovery and pharmacologic characterization of CP-724,714, a selective ErbB2 tyrosine kinase inhibitor” (Cancer Res, 2007):
Calls of active or inactive are those of the source. The rule behind the calls is not given here.

Columns and labels:
[1] = test system: BT-474; assay: Antitumor activity against human BT-474 expressing erbB2 cells xenografted bearing female athymic nu-nu CD-1 mouse assessed as tumor regrowth at 30 mg/kg, po bid administration and measured at 40 day; type: functional, organism-based
[2] = test system: MDA-MB-175-VII; assay: Antiproliferative activity against human MDA-MB-175-VII cells assessed as inhibition of cell growth; type: functional, cell-based
[3] = test system: MDA-MB-468; assay: Antiproliferative activity against human MDA-MB-468 cells assessed as inhibition of cell growth; type: functional, cell-based
[4] = test system: BT-474; assay: Antitumor activity against human BT-474 high expressing erbB2 cells xenografted bearing female athymic nu-nu CD-1 mouse assessed as inhibition in tumor regression at 100 mg/kg, po bid administrated for 8 to 40 days relative to control; type: functional; conditions: time 8-40 day
[5] = Antitumor activity against human erbB2 transfected FRE cells xenografted bearing female athymic nu-nu CD-1 mouse assessed as apoptotic changes at 100 mg/kg, po administration and measured at 8 hrs by H&E staining method relative to control; type: functional
[6] = test system: BT-474; assay: Antitumor activity against human BT-474 high expressing erbB2 cells xenografted bearing female athymic nu-nu CD-1 mouse assessed as reduction in tumor phospho-Akt level at 100 mg/kg, po after 0.5 hrs administration by western blot analysis relative to control; type: functional; design: scale not given: the % may be the effect or the level left
[7] = test system: MDA-MB-453; assay: Antitumor activity against human MDA-MB-453 high expressing erbB2 cells xenografted bearing female athymic nu-nu CD-1 mouse assessed as inhibition in tumor growth at 100 mg/kg, po bid administrated for 8 to 40 days relative to control; type: functional; conditions: time 8-40 day
[8] = test system: MDA-MB-453; assay: Antiproliferative activity against human MDA-MB-453 cells assessed as inhibition of cell growth; type: functional, cell-based
[9] = test system: T47D; assay: Antiproliferative activity against human T47D cells assessed as inhibition of cell growth; type: functional, cell-based
[10] = target: T1, Receptor tyrosine-protein kinase erbB-2 (Homo sapiens, UniProt P04626); assay: Inhibition of human erbB2 intracellular domain transfected in mouse NIH3T3 cells assessed as potency reduction in autophosphorylation of the chimera erbB2 incubated for 2 hrs in the presence of EGF stimulation by westernblot analysis; type: cell-based
[11] = test system: BT-474; assay: Antitumor activity against human BT-474 expressing erbB2 cells xenografted bearing female athymic nu-nu CD-1 mouse assessed as tumor regression at 100 mg/kg, po bid administration and measured at 40 day relative to control; type: functional
[12] = test system: BT-474; assay: Antitumor activity against human BT-474 high expressing erbB2 cells xenografted bearing female athymic nu-nu CD-1 mouse assessed as reduction in tumor phospho-Erk level at 30 to 100 mg/kg, po after 0.5 hrs administration by western blot analysis relative to control; type: functional; design: scale not given: the % may be the effect or the level left; conditions: dose 30-100 mg/kg
[13] = test system: BT-474; assay: Antitumor activity against human BT-474 cells expressing erbB2 xenografted bearing female athymic nu-nu CD-1 mouse assessed as inhibition in tumor growth at 100 mg/kg, po bid administration and measured at 40 day relative to control; type: functional; conditions: BT-474, 960 h
[14] = test system: MDA-MB-453; assay: Antitumor activity against human MDA-MB-453 expressing erbB2 cells xenografted bearing female athymic nu-nu CD-1 mouse assessed as reduction in tumor erbB2 phosphorylation at 100 mg/kg, po bid administration and measured at 29 day by ELISA method relative to control; type: functional; design: scale not given: the % may be the effect or the level left
[15] = Antitumor activity against human erbB2 transfected FRE cells xenografted bearing female athymic nu-nu CD-1 mouse assessed as inhibition in tumor growth at 50 mg/kg, po QD administrated for 8 to 40 days relative to control; type: functional; conditions: time 8-40 day
[16] = test system: COLO 205; assay: Antitumor activity against human COLO 205 low expressing erbB2 cells xenografted bearing female athymic nu-nu CD-1 mouse assessed as inhibition in tumor growth at 100 mg/kg, po bid administrated for 14 to 31 days relative to control; type: functional; conditions: time 14-31 day
[17] = test system: BT-474; assay: Antitumor activity against human BT-474 expressing erbB2 cells xenografted bearing female athymic nu-nu CD-1 mouse assessed as inhibition in tumor growth at 30 mg/kg, po bid administration and measured at 40 day relative to control; type: functional; conditions: BT-474, 960 h
[18] = test system: BT-474; assay: Induction of cell cycle arrest in Her2-amplified human BT-474 cells overexpressing erbB2 assessed as reduction in S phase at 1 micromol/L incubated for 24 hrs by flow cytometry analysis relative to control; type: functional; design: scale not given: the % may be the effect or the level left; conditions: dose 1 µmol/L, at 1 µM
[19] = test system: BT-474; assay: Antitumor activity against human BT-474 expressing erbB2 cells xenografted bearing female athymic nu-nu CD-1 mouse assessed as tumor regression at 100 mg/kg, po bid administration and measured at 9 day relative to control; type: functional
[20] = test system: BT-474; assay: Antitumor activity against human BT-474 expressing erbB2 cells xenografted bearing female athymic nu-nu CD-1 mouse assessed as inhibition in tumor growth at 50 to 100 mg/kg, po bid administration and measured at 4 day; type: functional, organism-based; conditions: dose 50-100 mg/kg
[21] = test system: BT-474; assay: Antiproliferative activity against human BT-474 cells assessed as inhibition of cell growth; type: functional, cell-based
[22] = Antiproliferative activity against human SUM190PT cells assessed as inhibition of cell growth; type: functional, cell-based
[23] = test system: BT-474; assay: Inhibition of colony formation in human BT-474 cells overexpressing erbB2 assessed as decrease in colony formation at 1 micromol/L by methanolic crystal violet staining relative to control; type: functional; conditions: dose 1 µmol/L
[24] = Average plasma concentration (0 to 4 hrs) in human erbB2 transfected FRE cells xenografted bearing female athymic nu-nu CD-1 mouse at 50 mg/kg, po QD administrated for 8 to 40 days by liquid chromatography-tandem mass spectrometry analysis; type: ADME, organism-based; conditions: in vivo, time 8-40 day
[25] = Antitumor activity against human erbB2 transfected FRE cells xenografted bearing female athymic nu-nu CD-1 mouse assessed as reduction in tumor erbB2 receptor phosphorylation at 25 mg/kg, po and measured at 30 mins by ELISA method relative to control; type: functional; design: scale not given: the % may be the effect or the level left; conditions: 0.5 h
[26] = test system: MDA-MB-157; assay: Antiproliferative activity against human MDA-MB-157 cells assessed as inhibition of cell growth; type: functional, cell-based
[27] = test system: LoVo; assay: Antitumor activity against human LoVo low expressing erbB2 cells xenografted bearing female athymic nu-nu CD-1 mouse assessed as inhibition in tumor growth at 100 mg/kg, po bid administrated for 14 to 31 days relative to control; type: functional; conditions: time 14-31 day
[28] = test system: MDA-MB-453; assay: Antitumor activity against human MDA-MB-453 expressing erbB2 cells xenografted bearing female athymic nu-nu CD-1 mouse assessed as inhibition in tumor growth at 50 mg/kg, po bid administration and measured at 29 day relative to control; type: functional; conditions: MDA-MB-453, 696 h
[29] = test system: BT-474; assay: Antitumor activity against human BT-474 high expressing erbB2 cells xenografted bearing female athymic nu-nu CD-1 mouse assessed as reduction in tumor phospho-Akt level at 30 mg/kg, po after 0.5 hrs administration by western blot analysis relative to control; type: functional; design: scale not given: the % may be the effect or the level left
[30] = test system: UACC-812; assay: Antiproliferative activity against human UACC-812 cells assessed as inhibition of cell growth; type: functional, cell-based
[31] = target: T1, Receptor tyrosine-protein kinase erbB-2; assay: Inhibition of human recombinant intracellular domain of erbB2; type: cell-based
[32] = test system: MDA-MB-453; assay: Antitumor activity against human MDA-MB-453 high expressing erbB2 cells xenografted bearing female athymic nu-nu CD-1 mouse assessed as inhibition in tumor regression at 100 mg/kg, po bid administrated for 8 to 40 days relative to control; type: functional; conditions: time 8-40 day
[33] = test system: FRE; assay: Antitumor activity against human erbB2 transfected FRE cells xenografted bearing female athymic nu-nu CD-1 mouse assessed as increase in cleaved caspase-3 cells at 100 mg/kg, po administration and measured at 8 hrs by immunohistochemical analysis; type: functional, organism-based

T1 sequence (P04626 whole entry, the tested form may be a part): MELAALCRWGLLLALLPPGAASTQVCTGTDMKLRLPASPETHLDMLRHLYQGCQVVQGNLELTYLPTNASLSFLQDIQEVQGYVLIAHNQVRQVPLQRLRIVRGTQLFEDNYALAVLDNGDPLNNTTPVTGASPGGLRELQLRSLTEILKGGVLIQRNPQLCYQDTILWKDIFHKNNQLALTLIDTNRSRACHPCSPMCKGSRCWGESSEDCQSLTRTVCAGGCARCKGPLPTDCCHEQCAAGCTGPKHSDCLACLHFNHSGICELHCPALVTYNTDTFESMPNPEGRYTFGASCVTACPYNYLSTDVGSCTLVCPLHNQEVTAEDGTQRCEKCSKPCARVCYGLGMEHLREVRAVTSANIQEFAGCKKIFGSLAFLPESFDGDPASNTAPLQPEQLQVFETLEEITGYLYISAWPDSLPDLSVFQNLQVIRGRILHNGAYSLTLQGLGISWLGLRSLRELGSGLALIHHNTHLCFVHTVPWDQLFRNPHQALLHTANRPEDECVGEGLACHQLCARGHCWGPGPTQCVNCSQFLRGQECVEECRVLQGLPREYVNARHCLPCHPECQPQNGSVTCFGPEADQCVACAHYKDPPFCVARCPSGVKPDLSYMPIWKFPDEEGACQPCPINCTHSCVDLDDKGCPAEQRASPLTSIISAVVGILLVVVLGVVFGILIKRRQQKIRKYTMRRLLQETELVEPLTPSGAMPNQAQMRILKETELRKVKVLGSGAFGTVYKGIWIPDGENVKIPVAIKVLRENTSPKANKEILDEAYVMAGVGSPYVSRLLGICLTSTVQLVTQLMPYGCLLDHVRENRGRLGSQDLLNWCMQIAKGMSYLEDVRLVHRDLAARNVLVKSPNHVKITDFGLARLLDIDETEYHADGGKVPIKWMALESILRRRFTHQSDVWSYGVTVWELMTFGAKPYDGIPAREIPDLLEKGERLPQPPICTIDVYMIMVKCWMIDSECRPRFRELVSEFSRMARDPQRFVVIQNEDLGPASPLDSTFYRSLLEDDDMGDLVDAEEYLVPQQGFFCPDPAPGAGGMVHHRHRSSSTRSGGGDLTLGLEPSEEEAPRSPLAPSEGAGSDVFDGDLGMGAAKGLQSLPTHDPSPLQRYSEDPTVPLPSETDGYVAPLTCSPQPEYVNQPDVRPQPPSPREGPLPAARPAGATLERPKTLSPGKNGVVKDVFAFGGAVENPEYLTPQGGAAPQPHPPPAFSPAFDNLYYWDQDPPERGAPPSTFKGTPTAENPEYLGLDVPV

COCC(=O)NC/C=C/c1ccc2ncnc(Nc3ccc(Oc4ccc(C)nc4)c(C)c3)c2c1 [CP-724714]
Activity [1]: Active | IC50 [2]: 0.81 µM | IC50 [3]: > 10 µM | inhibition in vivo at 100 mg/kg [4]: 83% | Activity [5]: 75% | Activity [6]: 70% | inhibition in vivo at 100 mg/kg [7]: 83% | IC50 [8]: 2.5 µM | IC50 [9]: 2.4 µM | IC50 [10]: 0.032 µM | Activity [11]: 61% | Activity [12]: ~75% | inhibition in vivo at 100 mg/kg [13]: 100% | Activity [14]: 69% | inhibition in vivo at 50 mg/kg [15]: ~50% | inhibition in vivo at 100 mg/kg [16]: 46% | inhibition in vivo at 30 mg/kg [17]: 81% | Activity [18]: 3.2% | Activity [19]: ~6% | inhibition [20]: Active | IC50 [21]: 0.25 µM | IC50 [22]: 0.71 µM | inhibition at 1 µM [23]: > 80% | Cave [24]: 1.3 µg/mL | Activity [25]: ~75% | IC50 [26]: > 10 µM | inhibition in vivo at 100 mg/kg [27]: 46% | inhibition in vivo at 50 mg/kg [28]: 66% | Activity [29]: 42% | IC50 [30]: 1.9 µM | IC50 [31]: 0.01 µM | inhibition in vivo at 100 mg/kg [32]: 83% | Activity [33]: Active
